Results published in the NIST ThermoML archive (doi:10.1016/j.fluid.2005.06.028).
± gives the expanded uncertainty stated by the source.

Assay: Solid-liquid equilibrium temperature

Row | Solid-liquid equilibrium temperature (100 kPa, Crystal 1) [K] | Solid-liquid equilibrium temperature (20000 kPa, Crystal 1) [K] | Solid-liquid equilibrium temperature (40000 kPa, Crystal 1) [K] | Solid-liquid equilibrium temperature (60000 kPa, Crystal 1) [K] | Solid-liquid equilibrium temperature (80000 kPa, Crystal 1) [K] | Solid-liquid equilibrium temperature (100000 kPa, Crystal 1) [K] | Solid-liquid equilibrium temperature (100 kPa, Crystal) [K] | Solid-liquid equilibrium temperature (20000 kPa, Crystal) [K] | Solid-liquid equilibrium temperature (40000 kPa, Crystal) [K] | Solid-liquid equilibrium temperature (60000 kPa, Crystal) [K] | Solid-liquid equilibrium temperature (80000 kPa, Crystal) [K] | Solid-liquid equilibrium temperature (100000 kPa, Crystal) [K] | SMILES
1 | 291.5 ± 0.9 | 296 ± 0.9 | 300.4 ± 0.9 | 304.8 ± 0.9 | 309.7 ± 0.9 | 313.5 ± 0.9 | – | – | – | – | – | – | CCCCCCCCCCCCCCCC [hexadecane]
2 | – | – | – | – | – | – | 279.2 ± 0.9 | 284.2 ± 0.9 | 289.1 ± 0.9 | 293.8 ± 0.9 | 297.9 ± 0.9 | 301.7 ± 0.9 | CCCCCCCCCCCCCC [tetradecane]
3 | – | – | – | – | – | – | 283.2 ± 0.9 | 287.8 ± 0.9 | 291.9 ± 0.9 | 296.2 ± 0.9 | 300.1 ± 0.9 | 303.9 ± 0.9 | CCCCCCCCCCCCCCC [pentadecane]
